Source: patent publication US20070185149A1, “Novel amido-substituted hydroxy-6-phenylphenanthridines and their use as pde4 inhibtors” (ALTANA PHARMA AG, priority 2004, published 2007)

Each molecule was assayed against T1, PDE4B2 (Homo sapiens, UniProt Q07343) (assay: Inhibition of PDE4 activity: PDE4B2 [3H]cAMP SPA enzyme assay). Conditions: recombinant PDE4B2 (SF21 cell supernatant), modified SPA test, 0.5 μM cAMP, 15 min at 37° C.; read-out: Inhibition of the PDE4 activity, −log IC50 (converted).
T1 construct: made in house; host or cells: SF21 insect cells (baculovirus; virus prepared in SF9 cells)
T1 sequence (Q07343 1-564 isoform Q07343-2): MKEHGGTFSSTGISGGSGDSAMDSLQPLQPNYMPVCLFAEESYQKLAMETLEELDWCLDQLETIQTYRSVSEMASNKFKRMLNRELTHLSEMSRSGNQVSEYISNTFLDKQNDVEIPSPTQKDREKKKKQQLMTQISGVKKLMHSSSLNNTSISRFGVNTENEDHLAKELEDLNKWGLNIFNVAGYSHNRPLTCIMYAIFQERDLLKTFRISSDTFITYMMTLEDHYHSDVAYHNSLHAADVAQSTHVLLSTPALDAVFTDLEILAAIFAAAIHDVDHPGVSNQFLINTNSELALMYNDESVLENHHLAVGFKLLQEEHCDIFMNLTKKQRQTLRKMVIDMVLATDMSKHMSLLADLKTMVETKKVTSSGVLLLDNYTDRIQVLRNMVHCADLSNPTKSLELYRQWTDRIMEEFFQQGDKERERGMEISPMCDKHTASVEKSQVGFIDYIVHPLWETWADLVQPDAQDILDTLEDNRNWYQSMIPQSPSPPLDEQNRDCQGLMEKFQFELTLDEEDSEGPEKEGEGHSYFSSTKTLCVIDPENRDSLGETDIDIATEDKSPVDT
Format: biochemical
Procedure: The PDE4B2 (GB no. M97515) was a gift of Prof. M. Conti (Stanford University, USA). It was amplified from the original plasmid (pCMV5) via PCR with primers Rb9 (5′-[…]-3′) and Rb10 (5′-[…]-3′) and cloned into the pCR-Bac vector (Invitrogen, Groningen, NL).
The recombinant baculovirus was prepared by means of homologous recombination in SF9 insect cells.
The expression plasmid was cotransfected with Bac-N-Blue (Invitrogen, Groningen, NL) or Baculo-Gold DNA (Pharmingen, Hamburg) using a standard protocol (Pharmingen, Hamburg). Wt virus-free recombinant virus supernatant was selected using plaque assay methods. After that, high-titre virus supernatant was prepared by amplifying 3 times. PDE was expressed in SF21 cells by infecting 2×10^6 cells/ml with an MOI (multiplicity of infection) between 1 and 10 in serum-free SF900 medium (Life Technologies, Paisley, UK). The cells were cultured at 28° C. for 48-72 hours, after which they were pelleted for 5-10 min at 1000 g and 4° C.
The SF21 insect cells were resuspended, at a concentration of approx. 10^7 cells/ml, in ice-cold (4° C.) homogenization buffer (20 mM Tris, pH 8.2, containing the following additions: 140 mM NaCl, 3.8 mM KCl, 1 mM EGTA, 1 mM MgCl2, 10 mM β-mercaptoethanol, 2 mM benzamidine, 0.4 mM Pefablock, 10 μM leupeptin, 10 μM pepstatin A, 5 μM trypsin inhibitor) and disrupted by ultrasonication. The homogenate was then centrifuged for 10 min at 1000×g and the supernatant was stored at −80° C. until subsequent use (see below). The protein content was determined by the Bradford method (BioRad, Munich) using BSA as the standard.
PDE4B2 activity is inhibited by the said compounds in a modified SPA (scintillation proximity assay) test, supplied by Amersham Biosciences (see procedural instructions “phosphodiesterase [3H]cAMP SPA enzyme assay, code TRKQ 7090”), carried out in 96-well microtitre plates (MTP's). The test volume is 100 μl and contains 20 mM Tris buffer (pH 7.4), 0.1 mg of BSA (bovine serum albumin)/ml, 5 mM Mg^2+, 0.5 μM cAMP (including about 50,000 cpm of [3H]cAMP), 1 μl of the respective substance dilution in DMSO and sufficient recombinant PDE (1000×g supernatant, see above) to ensure that 10-20% of the cAMP is converted under the said experimental conditions. […] After a preincubation of 5 min at 37° C., the reaction is started by adding the substrate (cAMP) and the assay is incubated for a further 15 min; after that, it is stopped by adding SPA beads (50 μl). In accordance with the manufacturer's instructions, the SPA beads had previously been resuspended in water, but were then diluted 1:3 (v/v) in water; the diluted solution also contains 3 mM IBMX to ensure a complete PDE activity stop. After the beads have been sedimented (>30 min), the MTP's are analyzed in commercially available […]. The corresponding IC50 values of the compounds for the inhibition of PDE activity are determined from the concentration-effect curves by means of non-linear regression.

Structure (SMILES) | IC50 [nM]
COc1cc2c(cc1OC)[C@H]1C[C@H](O)CC[C@H]1N=C2c1ccc(C(=O)NN2CCN(C)CC2)cc1 (racemic) [Compound 3, 4-((2RS,4aRS,10bRS)-2-Hydroxy-8,9-dimethoxy-1,2,3,4,4a,10b-hexahydro-phenanthridin-6-yl)-N-(4-methyl-piperazin-1-yl)benzamide] | 0.955 to 8.71
COc1cc2c(cc1OC)[C@H]1C[C@H](O)CC[C@H]1N=C2c1ccc(C(=O)Nc2cnc3ccccc3c2)cc1 (racemic) [Compound 6, 4-((2RS,4aRS,10bRS)-2-Hydroxy-8,9-dimethoxy-1,2,3,4,4a,10b-hexahydro-phenanthridin-6-yl)-N-quinolin-3-yl-benzamide] | 0.955 to 8.71
COc1cc2c(cc1OC)[C@H]1C[C@H](O)CC[C@H]1N=C2c1ccc(C(=O)NCCc2ccccn2)cc1 (racemic) [Compound 7, 4-((2RS,4aRS,10bRS)-2-Hydroxy-8,9-dimethoxy-1,2,3,4,4a,10b-hexahydro-phenanthridin-6-yl)-N-(2-pyridin-2-yl-ethyl)-benzamide] | 0.955 to 8.71
COc1cc2c(cc1OC)[C@H]1C[C@H](O)CC[C@H]1N=C2c1ccc(C(=O)N2CCN(CCN3CCOCC3)CC2)cc1 (racemic) [Compound 9, 1-[4-((2RS,4aRS,10bRS)-2-Hydroxy-8,9-dimethoxy-1,2,3,4,4a,10b-hexahydro-phenanthridin-6-yl)-phenyl]-1-[4-(2-morpholin-4-yl-ethyl)-piperazin-1-yl]methanone] | 0.955 to 8.71
COc1cc2c(cc1OC)[C@H]1C[C@H](O)CC[C@H]1N=C2c1ccc(C(=O)NC2CC2)cc1 (racemic) [Compound 11, N-Cyclopropyl-4-((2RS,4aRS,10bRS)-2-hydroxy-8,9-dimethoxy-1,2,3,4,4a,10b-hexahydro-phenanthridin-6-yl)-benzamide] | 0.955 to 8.71
COc1cc2c(cc1OC)[C@H]1C[C@H](O)CC[C@H]1N=C2c1ccc(C(=O)N2CCN(CC(=O)N3CCCC3)CC2)cc1 (racemic) [Compound 12, 2-(4-{1-[4-((2RS,4aRS,10bRS)-2-Hydroxy-8,9-dimethoxy-1,2,3,4,4a,10b-hexahydro-phenanthridin-6-yl)-phenyl]-methanoyl}-piperazin-1-yl)-1-pyrrolidin-1-yl-ethanone] | 0.955 to 8.71
COc1cc2c(cc1OC)[C@H]1C[C@H](O)CC[C@H]1N=C2c1ccc(C(=O)N2CCN(CC(=O)Nc3cccnc3)CC2)cc1 (racemic) [Compound 13, 2-(4-{1-[4-((2RS,4aRS,10bRS)-2-Hydroxy-8,9-dimethoxy-1,2,3,4,4a,10b-hexahydro-phenanthridin-6-yl)phenyl]methanoyl}-piperazin-1-yl)-N-pyridin-3-yl-acetamide] | 0.955 to 8.71
COc1cc2c(cc1OC)[C@H]1C[C@H](O)CC[C@H]1N=C2c1ccc(C(=O)N(C)C)cc1 (racemic) [Compound 14, 4-((2RS,4aRS,10bRS)-2-Hydroxy-8,9-dimethoxy-1,2,3,4,4a,10b-hexahydro-phenanthridin-6-yl)-N,N-dimethyl-benzamide] | 0.955 to 8.71
COc1cc2c(cc1OC)[C@H]1C[C@H](O)CC[C@H]1N=C2c1ccc(C(=O)N2CCN(CC(=O)Nc3ccccn3)CC2)cc1 (racemic) [Compound 15, 2-(4-{1-[4-((2RS,4aRS,10bRS)-2-Hydroxy-8,9-dimethoxy-1,2,3,4,4a,10b-hexahydro-phenanthridin-6-yl)-phenyl]-methanoyl}-piperazin-1-yl)-N-pyridin-2-yl-acetamide] | 0.955 to 8.71
COc1cc2c(cc1OC)[C@H]1C[C@H](O)CC[C@H]1N=C2c1ccc(C(=O)N2CCN(CC(=O)N3CCOCC3)CC2)cc1 (racemic) [Compound 17, 2-(4-{1-[4-((2RS,4aRS,10bRS)-2-Hydroxy-8,9-dimethoxy-1,2,3,4,4a,10b-hexahydro-phenanthridin-6-yl)-phenyl]-methanoyl}-piperazin-1-yl)-1-morpholin-4-yl-ethanone] | 0.955 to 8.71
COc1cc2c(cc1OC)[C@H]1C[C@H](O)CC[C@H]1N=C2c1ccc(C(=O)N2CCOCC2)cc1 (racemic) [Compound 19, 1-[4-((2RS,4aRS,10bRS)-2-Hydroxy-8,9-dimethoxy-1,2,3,4,4a,10b-hexahydro-phenanthridin-6-yl)-phenyl]-1-morpholin-4-yl-methanone] | 0.955 to 8.71
COc1cc2c(cc1OC)[C@H]1C[C@H](O)CC[C@H]1N=C2c1ccc(C(=O)NCCc2ccncc2)cc1 (racemic) [Compound 20, 4-((2RS,4aRS,10bRS)-2-Hydroxy-8,9-dimethoxy-1,2,3,4,4a,10b-hexahydro-phenanthridin-6-yl)-N-(2-pyridin-4-yl-ethyl)-benzamide] | 0.955 to 8.71
COc1cc2c(cc1OC)[C@H]1C[C@H](O)CC[C@H]1N=C2c1ccc(C(=O)NCCc2cccnc2)cc1 (racemic) [Compound 21, 4-((2RS,4aRS,10bRS)-2-Hydroxy-8,9-dimethoxy-1,2,3,4,4a,10b-hexahydro-phenanthridin-6-yl)-N-(2-pyridin-3-yl-ethyl)-benzamide] | 0.955 to 8.71
COc1cc2c(cc1OC)[C@H]1C[C@H](O)CC[C@H]1N=C2c1ccc(C(=O)NNC(=O)N2CCOCC2)cc1 (racemic) [Compound 22, 4-((2RS,4aRS,10bRS)-2-Hydroxy-8,9-dimethoxy-1,2,3,4,4a,10b-hexahydro-phenanthridin-6-yl)benzoic acid N′-(1-morpholin-4-yl-methanoyl)-hydrazide] | 0.955 to 8.71
COc1ccc(NC(=O)c2ccc(C3=N[C@@H]4CC[C@@H](O)C[C@@H]4c4cc(OC)c(OC)cc43)cc2)c(OC)n1 (racemic) [Compound 23, N-(2,6-Dimethoxy-pyridin-3-yl)-4-((2RS,4aRS,10bRS)-2-hydroxy-8,9-dimethoxy-1,2,3,4,4a,10b-hexahydro-phenanthridin-6-yl)benzamide] | 0.955 to 8.71
COc1cc2c(cc1OC(F)F)[C@H]1C[C@H](O)CC[C@H]1N=C2c1ccc(C(=O)N(C)C)cc1 (racemic) [Compound 24, 4-[(2RS,4aRS,10bRS)-9-(1,1-Difluoro-methoxy)-2-hydroxy-8-methoxy-1,2,3,4,4a,10b-hexahydro-phenanthridin-6-yl]-N,N-dimethyl-benzamide] | 0.955 to 8.71
COc1cc2c(cc1OC(F)F)[C@H]1C[C@H](O)CC[C@H]1N=C2c1ccc(C(=O)NC2CC2)cc1 (racemic) [Compound 25, N-Cyclopropyl-4-[(2RS,4aRS,10bRS)-9-(1,1-difluoro-methoxy)-2-hydroxy8-methoxy-1,2,3,4,4a,10b-hexahydro-phenanthridin-6-yl]-benzamide] | 0.955 to 8.71
COCCN(CCOC)C(=O)c1ccc(C2=N[C@@H]3CC[C@@H](O)C[C@@H]3c3cc(OC(F)F)c(OC)cc32)cc1 (racemic) [Compound 26, 4-[(2RS,4aRS,10bRS)-9-(1,1-Difluoro-methoxy)-2-hydroxy-8-methoxy-1,2,3,4,4a,10b-hexahydro-phenanthridin-6-yl]-N,N-bis(2-methoxy-ethyl)-benzamide] | 0.955 to 8.71
COc1cc2c(cc1OC(F)F)[C@H]1C[C@H](O)CC[C@H]1N=C2c1ccc(C(=O)NCCN2CCOCC2)cc1 (racemic) [Compound 27, 4-[(2RS,4aRS,10bRS)-9-(1,1-Difluoro-methoxy)-2-hydroxy-8-methoxy-1,2,3,4,4a,10b-hexahydro-phenanthridin-6-yl]-N-(2-morpholin-4-yl-ethyl)-benzamide] | 0.955 to 8.71
COc1cc2c(cc1OC(F)F)[C@H]1C[C@H](O)CC[C@H]1N=C2c1ccc(C(=O)NCCCN2CCOCC2)cc1 (racemic) [Compound 28, 4-[(2RS,4aRS,10bRS)-9-(1,1-Difluoro-methoxy)-2-hydroxy-8-methoxy-1,2,3,4,4a,10b-hexahydro-phenanthridin-6-yl]-N-(3-morpholin-4-yl-propyl)-benzamide] | 0.955 to 8.71
COc1cc2c(cc1OC(F)F)[C@H]1C[C@H](O)CC[C@H]1N=C2c1ccc(C(=O)N2CCN(CCN3CCOCC3)CC2)cc1 (racemic) [Compound 29, 1-{4-[(2RS,4aRS,10bRS)-9-(1,1-Difluoro-methoxy)-2-hydroxy-8-methoxy-1,2,3,4,4a,10b-hexahydro-phenanthridin-6-yl]-phenyl}-1-[4(2-morpholin-4-yl-ethyl)-piperazin-1-yl]-methanone] | 0.955 to 8.71
